Test results as given in patent publication US20140140962A1, “VIRUSES MODIFIED WITH UNNATURAL MOIETIES AND METHODS OF USE THEREOF” (priority 2011, published 2014).

Tests used:
[1] = tested on: cancer stem cell related genes (Oct4, Sox2, Nanog, and c-Myc); conditions: 3 unrelated invasive colon cancer cell lines; cited from earlier work
[2] = tested on: drug resistant cancer cell lines; conditions: cited from earlier work
HEK 293 cells = assay: Plaque forming assay (infectivity); format: cell-based; conditions: inferred from plaque assays, even at high concentration
Protocol: Dulbecco's modified Eagle's medium (DMEM), RPMI 1640, penicillin/streptomycin and 0.5% trypsin-EDTA were purchased from GIBCO (Grand Island, N.Y.). RPMI 1640 minus folic acid was obtained from Sigma. Fetal calf serum (FCS) and bovine calf serum (BCS) was purchased from HyClone (Logan, Utah). 293 cells were maintained in DMEM supplemented with 10% BCS, 2 mM glutamine, 100 U/mL penicillin, 100 μg/mL streptomycin. 4T1 cells (ATCC) were maintained in RPMI 1640 medium containing 10% FCS, 2 mM L-glutamine, 100 U/mL penicillin, and 100 μg/mL streptomycin. For 4T1 cells grown without folate, RPMI 1640 minus folic acid was supplemented with 10% FCS, 0.3 mg/mL L-glutamine, 2 mg/mL sodium bicarbonate, 100 U/mL penicillin, 100 μg/mL streptomycin. All cells were maintained in 100×20 mm tissue culture dishes obtained from BD biosciences (Franklin Lakes, N.J.) at 37° C. and 5% CO2. HEK 293 cells in […] culture plates were infected with 400 μL of azide labeled virus particles at concentrations of 10^3 particles/mL. The plates were overlaid with complete media containing 2.8% bactoagar and 10% BCS. […] The plaques were counted within a day after the final overlay.
HEK 293 cells cultivated in 6 mL culture plates were infected with 400 μL of azide labeled virus particles at concentrations of 10^3 particles/ml. […] The plaques were counted within a day after the final overlay.

| Structure (SMILES) | inhibition of cancer stem cell related genes [1] | cytotoxicity against drug resistant cancer cell lines [2] | toxicity to the cells (HEK 293 cells) |
| --- | --- | --- | --- |
| CC(=O)O[C@@]12CO[C@@H]1C[C@H](O)[C@@]1(C)C(=O)[C@H](OC(=O)C3CC3)C3=C(C)[C@@H](OC(=O)[C@H](O)[C@H](C=C(C)C)NC(=O)OC(C)(C)C)C[C@@](O)([C@@H](OC(=O)c4ccccc4)[C@H]21)C3(C)C [SB-T-1214] | substantial inhibition | significantly improved cytotoxicity |  |
| [N-]=[N+]=NCC[C@H](N)C(=O)O [Aha, Azidohomoalanine] |  |  | not toxic to the cells |
